{"source": "patent US7442701B2", "about": "“Amino-heterocycles as VR-1 antagonists for treating pain” (Merck Sharp & Dohme Ltd., priority 2002, dated 2008)", "origin": "cited, not measured here", "target": "VR1 (Rattus norvegicus, UniProt O35433)", "sequence (O35433 whole entry)": "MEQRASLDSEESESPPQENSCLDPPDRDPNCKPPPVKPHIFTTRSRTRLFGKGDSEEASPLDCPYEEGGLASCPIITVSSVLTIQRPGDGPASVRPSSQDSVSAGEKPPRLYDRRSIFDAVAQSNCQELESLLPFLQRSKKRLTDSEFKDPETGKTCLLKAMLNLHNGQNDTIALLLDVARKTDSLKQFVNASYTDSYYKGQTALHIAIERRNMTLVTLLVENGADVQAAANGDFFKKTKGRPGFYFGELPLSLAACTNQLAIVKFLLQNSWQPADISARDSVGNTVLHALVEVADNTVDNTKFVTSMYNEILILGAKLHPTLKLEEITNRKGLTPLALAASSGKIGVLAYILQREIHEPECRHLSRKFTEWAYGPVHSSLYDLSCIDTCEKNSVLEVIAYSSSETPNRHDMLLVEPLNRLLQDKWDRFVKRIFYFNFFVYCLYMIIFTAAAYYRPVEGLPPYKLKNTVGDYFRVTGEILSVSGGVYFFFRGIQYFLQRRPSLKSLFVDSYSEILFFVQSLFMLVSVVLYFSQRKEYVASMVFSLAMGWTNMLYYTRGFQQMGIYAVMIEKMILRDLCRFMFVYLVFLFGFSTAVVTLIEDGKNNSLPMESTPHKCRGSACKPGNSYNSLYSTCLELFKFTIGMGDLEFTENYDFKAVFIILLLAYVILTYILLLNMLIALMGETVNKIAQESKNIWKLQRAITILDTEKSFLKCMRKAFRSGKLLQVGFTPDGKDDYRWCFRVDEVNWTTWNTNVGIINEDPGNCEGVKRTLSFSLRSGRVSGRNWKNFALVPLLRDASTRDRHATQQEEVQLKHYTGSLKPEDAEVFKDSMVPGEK", "settings": "Wahl et al., Mol. Pharmacol., 59:9, 2001", "data": [{"compound": "C=C(C)[C@]12C[C@@H](C)[C@@]34O[C@](Cc5ccccc5)(O[C@@H]1[C@@H]3C=C(COC(=O)Cc1cc(I)c(O)c(OC)c1)C[C@]1(O)C(=O)C(C)=C[C@@H]41)O2", "note": "[Iodo-resiniferatoxin]", "values": [{"measurement": "antagonist of VR1", "result": "nanomolar antagonist"}]}]}
